Data: patent publication US20160311795A1, “PYRIMIDINE DIAMINE DERIVATIVES AS INHIBITORS OF CYTOSOLIC HSP90” (CALASIA PHARMACEUTICALS, INC., priority 2012, published 2016)
pIC50, pKi: −log10 of the molar value. Like-named read-outs stand apart in the source and are kept apart here.

Target: T1, human full length Hsp90 (Homo sapiens, UniProt P07900)
T1 construct: amino acid residues 1 to 732 of human Hsp90 (GenBank: BC121062.2); made in house; host or cells: E. coli BL21DE3 (pET15b)
Test: Fluorescence polarization Hsp90 competitive binding assay (GM-FITC displacement)
Conditions: for inhibition at 10 µM: compound at 10 μM, read-out: Biochemical Potency % Inhibition at 10 μM; for inhibition at 1 µM: compound at 1 μM, read-out: Biochemical Potency % Inhibition at 1 μM
Procedure: Hsp90 binding assays was performed generally according to the procedure described in J. Biomol. […] Hsp90 inhibitors were solubilized in DMSO at a stock concentration of 50 mM. […] Eighty five μl of binding assay buffer (20 mM HEPES, pH-7.5, 50 mM KCl, 5 mM MgCl2, 20 mM sodium molybdate, 0.01% NP-40, 2 mM DTT, and 0.1 mg/ml BSA) was added to the wells of a 96 well black plate placed on ice. […] Next, 10 μl either binding assay buffer alone (control) or human full length Hsp90 protein diluted in the binding assay buffer was added to achieve a final concentration of 50 nM. The plates were incubated at 4° C. on a plate shaker for 24 h. Two μl of 50× GM-FITC (9 nM final) in DMSO was added to all wells and the plate was incubated at ambient temperature for 1 h with shaking. Fluorescence polarization readings were taken in duplicate at excitation and emission wavelengths of 480 nm and 500 nm respectively. Specific binding was calculated by subtracting polarization values in the presence of Hsp90 from those in the absence of Hsp90. To calculate percent inhibition the specific binding values obtained for GA-FITC in the presence of compound were compared to values for GA-FITC in the absence of compound (DMSO only).

[1] = Table 1, 50 nM Hsp90, 9 nM GM-FITC, read-out: Biochemical Potency IC50
[2] = Table II, binding affinities ranked by potency
[3] = Table II, binding affinities ranked by potency, read-out: IC50

Question: What does the source list for “6-Chloro-N4-((4-methoxy-3,5-dimethylpyridin-2-yl)methyl)-N4-(3-methoxyphenethyl)pyrimidine-2,4-diamine [SBI-0640606]”?
Answer: pIC50 [1]: 6.36; pKi [2]: 6.97; pIC50 [3]: 6.36

Question: With “6-Chloro-N4-((4-methoxy-3,5-dimethylpyridin-2-yl)methyl)-N4-(4-methoxyphenethyl)pyrimidine-2,4-diamine [SBI-0640605]” as the molecule, how does the pIC50 [1] read?
Answer: 6.46

Question: And the pKi [2]?
Answer: 7.06

Question: And the pIC50 [3]?
Answer: 6.46

Question: What does the source list for `COc1cc(CNc2cc(Cl)nc(N)n2)cc(OC)c1OC` [SBI-0206664]?
Answer: pKi [2]: < 5.60; pIC50 [3]: < 5.00; inhibition at 10 µM: 25%

Question: How did the pIC50 [1] turn out when `COc1c(C)cnc(CNc2cc(Cl)nc(N)n2)c1C` [SBI-0206665] was run?
Answer: 5.12

Question: What about the pKi [2] of the same molecule?
Answer: 6.00

Question: And the pIC50 [3]?
Answer: 5.40

Question: And the inhibition at 1 µM?
Answer: 7%

Question: What about the inhibition at 10 µM of the same molecule?
Answer: 61%

Question: How did the pKi [2] turn out when `COc1cccc(CNc2cc(Cl)nc(N)n2)c1` [SBI-0630160] was run?
Answer: < 5.60

Question: And the pIC50 [3]?
Answer: < 5.00

Question: What about the inhibition at 10 µM of the same molecule?
Answer: 13%

Question: What does the source list for `COc1ccc(CNc2cc(C(F)(F)F)nc(N)n2)c(OC)c1OC` [SBI-0630180]?
Answer: pKi [2]: < 5.60; pIC50 [3]: < 5.00; inhibition at 10 µM: 4%

Question: Which results are given for `Cc1cc(C)cc(CNc2cc(C(F)(F)F)nc(N)n2)c1` [SBI-0633823]?
Answer: pKi [2]: < 5.60; pIC50 [3]: < 5.00; inhibition at 10 µM: 17%

Question: `COc1cc(NCc2cc(OC)c(OC)c(OC)c2)nc(N)n1` [SBI-0633825] was tested. Which pIC50 [1] did it give?
Answer: < 3.60

Question: What about the pKi [2] of the same molecule?
Answer: < 5.60

Question: And the pIC50 [3]?
Answer: < 5.00

Question: What does the source list for `Nc1nc(Cl)cc(NCc2ccc(-c3ccccc3)cc2)n1` [SBI-0633826]?
Answer: pKi [2]: < 5.60; pIC50 [3]: < 5.00; inhibition at 10 µM: 21%

Question: With `COc1cc(CNc2ccnc(N)n2)cc(OC)c1OC` [SBI-0634911] as the molecule, how does the pIC50 [1] read?
Answer: < 3.60

Question: What about the pKi [2] of the same molecule?
Answer: < 5.60

Question: What about the pIC50 [3] of the same molecule?
Answer: < 5.00

Question: With `COc1ccc(CNc2ccnc(N)n2)cc1OC` [SBI-0634912] as the molecule, how does the pIC50 [1] read?
Answer: < 3.60

Question: What about the pKi [2] of the same molecule?
Answer: < 5.60

Question: What about the pIC50 [3] of the same molecule?
Answer: < 5.00

Question: Which results are given for `COc1cc(CNc2nc(N)nc3[nH]ccc23)cc(OC)c1OC` [SBI-0635446]?
Answer: pKi [2]: < 5.60; pIC50 [3]: < 5.00; inhibition at 10 µM: 10%

Question: Which results are given for `Nc1nc(Cl)cc(Nc2ccc3c(c2)OCO3)n1` [SBI-0636438]?
Answer: pKi [2]: < 5.60; pIC50 [3]: < 5.00; inhibition at 10 µM: 18%

Question: Which results are given for `Nc1nc(Cl)cc(NCc2ccc(-c3ccc(Cl)cc3F)cc2)n1` [SBI-0638966]?
Answer: pKi [2]: < 5.60; pIC50 [3]: < 5.00; inhibition at 10 µM: 34%

Question: With `Nc1nc(Cl)cc(NCc2ccc(Oc3ccccc3)cc2)n1` [SBI-0638967] as the molecule, how does the pKi [2] read?
Answer: < 5.60

Question: What about the pIC50 [3] of the same molecule?
Answer: < 5.00

Question: What about the inhibition at 10 µM of the same molecule?
Answer: 10%

Question: With `CCOc1ccc(-c2ccc(CNc3cc(Cl)nc(N)n3)cc2)cc1` [SBI-0638969] as the molecule, how does the pKi [2] read?
Answer: < 5.60

Question: What about the pIC50 [3] of the same molecule?
Answer: < 5.00

Question: What about the inhibition at 10 µM of the same molecule?
Answer: 3%

Question: With `COc1c(C)cnc(CNc2nc(N)nc3[nH]cnc23)c1C` [SBI-0639182] as the molecule, how does the pKi [2] read?
Answer: < 5.60

Question: And the pIC50 [3]?
Answer: < 5.00

Question: And the inhibition at 1 µM?
Answer: 4%

Question: And the inhibition at 10 µM?
Answer: 19%

Question: `COc1cccc2c1ccn2-c1cc(N)c(C(N)=O)c(NC2CCOCC2)c1` [SBI-0639186] was tested. Which pKi [2] did it give?
Answer: < 5.60

Question: And the pIC50 [3]?
Answer: < 5.00

Question: What about the inhibition at 1 µM of the same molecule?
Answer: 5%

Question: And the inhibition at 10 µM?
Answer: 10%

Question: What does the source list for `Cc1cnc(CNc2cc(Cl)nc(N)n2)c(C)c1Cl` [SBI-0639217, 6-Chloro-N4-((4-chloro-3,5-dimethylpyridin-2-yl)methyl)pyrimidine-2,4-diamine]?
Answer: pKi [2]: 6.52; pIC50 [3]: 5.92; inhibition at 1 µM: 47%; inhibition at 10 µM: 93%
